# Measured values taken from patent US20060161001A1, “Substituted heterocyclic compounds and methods of use” (Amgen Inc., priority 2004, published 2006).
# Tested on: LPS induced TNF release
# Test: THP1 cell assay (LPS induced TNF release)
# Assay type: cell-based
# Details: Homo sapiens, THP-1; THP1 cells, LPS induced TNF-α secretion, 3 h at 37° C.
# Outline: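 THP1 cells (1E6/mL) were stimulated with LPS and 3-fold serial compound dilutions for 3 h at 37 °C. Secreted TNF-α was quantified by ECL sandwich immunoassay. Percent of DMSO control was fitted to a 4-parameter equation.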
row,SMILES,IC50 [µM]
1,"CC(C)(Cc1ccc(F)cc1)Nc1nccc(N2CCCc3cnc(-c4ccccc4)cc32)n1 [Example 40, N-(1-(4-Fluorophenyl)-2-methylpropan-2-yl)-4-(7-phenyl-3,4-dihydro-1,6-naphthyridin-1(2H)-yl) pyrimidin-2-amine]",≤ 20
2,"O=C(O)C[C@@H](Cc1ccccc1)Nc1nccc(N2CCCc3cnc(-c4ccccc4)cc32)n1 [Example 19, (R)-4-Phenyl-3-(4-(7-phenyl-3,4-dihydro-1,6-naphthyridin-1(2H)-yl)pyrimidin-2-ylamino)butanoic acid]",≤ 20
3,"CC(C)(C)OC(=O)N1CCC(Nc2nccc(N3CCCc4ncc(-c5ccccc5)cc43)n2)CC1 [Example 30, tert-Butyl-4(7-phenyl-3,4-dihydro-1,5-naphthylridin-1(2H)-pyrimidin-2-ylamino)-piperidine-1-carboxylate]",≤ 20
4,"C[C@@H](Cc1cccc(C(C)(C)N)c1)Nc1nccc(N2CCCc3cnc(-c4ccccc4)cc32)n1 [Example 39, (S)-N-(1-(3-(2-Aminopropan-2-yl)phenyl)propan-2-yl)-4-(7-phenyl-3,4-dihydro-1,6-naphthyridin-1(2H)-yl) pyrimidin-2-amine]",≤ 20
5,"O=C(O)[C@@H](Cc1ccccc1)Nc1nccc(N2CCCc3cnc(-c4ccccc4)cc32)n1 [Example 18, (R)-3-Phenyl-2-(4-(7-phenyl-3,4-dihydro-1,6-naphthyridin-1(2H)-yl)pyrimidin-2-ylamino)propanoic acid]",≤ 20
6,"C[C@H](N)c1cccc(C[C@H](C)Nc2nccc(N3CCCc4cnc(-c5ccccc5)cc43)n2)c1 [Example 109, N-((S)-1-(3-((S)-1-Aminoethyl)phenyl)propan-2-yl)-4-(7-phenyl-3,4-dihydro-1,6-naphthyridin-1(2H)-yl)pyrimidin-2-amine]",≤ 20
7,"C[C@@H](Cc1cccc(C(C)(C)N)c1)Nc1nccc(N2CCOc3cnc(-c4ccccc4)nc32)n1 [Example 108, (S)-N-(1-(3-(2-Aminopropan-2-yl)phenyl)propan-2-yl)-4-(2-phenyl-6,7-dihydropyrimido[5,4-b][1,4]oxazin-8-yl)pyrimidin-2-amine]",≤ 20
8,"Cc1cc(N2CCCc3ccc(-c4ccccc4)nc32)nc(NC2CCN(C(=O)OC(C)(C)C)CC2)n1 [Example 60, tert-Butyl 4-(4-methyl-6-(7-phenyl-3,4-dihydro-1,8-naphthyridin-1(2H)-yl)-pyrimidin-2-ylamino)piperidine-1-carboxylate]",≤ 20
9,"COC(=O)[C@@H](Cc1ccccc1)Nc1nccc(N2CCCc3cnc(-c4ccccc4)cc32)n1 [Example 17, (R)-Methyl-3-phenyl-2-(4-(7-phenyl-3,4-dihydro-1,6-naphthyridin-1(2H)-yl)-pyrimidin-2-ylamino)propanoate]",≤ 20
10,C[C@@H](Cc1cccc(CN)c1)Nc1nccc(N2CCCc3cnc(-c4ccccc4)cc32)n1 [Example 38],≤ 20
